Experimental data as given in PMC11822212, “High-throughput screening identifies Aurora kinase B as a critical therapeutic target for Merkel cell carcinoma” (Nature Communications, 2025).
Where “and” joins values, the source holds several entries; their conditions need not be identical. Identical values can stand only once. Counter-ions that a name gives are not always drawn. Like-named read-outs stand apart in the source and are kept apart here.

How the values were obtained:
[1] = tested on: MCC13 cells (VN-MCC); experiment: qHTS cell viability (CellTiter-Glo, 72 h; primary and follow-up small molecule screen); assay type: cell-based, human
[2] = tested on: HACAT cells; experiment: qHTS cell viability (CellTiter-Glo, 72 h; primary screen), control cell line; assay type: cell-based, human
[3] = tested on: CRL-7250 cells; experiment: as above; assay type: cell-based
[4] = tested on: MCC26 cells (VN-MCC); experiment: qHTS cell viability (CellTiter-Glo, 72 h; primary and follow-up small molecule screen); assay type: cell-based, human
[5] = tested on: WAGA cells (VP-MCC); experiment: as above; assay type: cell-based, human
[6] = tested on: MCC cell lines (WAGA, MKL-1, MKL-2, MCC13, MCC26, UISO); experiment: qHTS cell viability, all six MCC cell lines as a group (mean AUC, MCC.avg); assay type: cell-based, human
[7] = tested on: control cell lines (HACAT, HEK293T, CRL-7250, NIH-3T3); experiment: qHTS cell viability, control cell lines as a group (mean AUC, Control.avg); assay type: cell-based
[8] = tested on: HEK293T cells; experiment: qHTS cell viability (CellTiter-Glo, 72 h; primary screen), control cell line; assay type: cell-based, human
[9] = tested on: MKL-2 cells (VP-MCC); experiment: qHTS cell viability (CellTiter-Glo, 72 h; primary and follow-up small molecule screen); assay type: cell-based, human
[10] = tested on: NIH-3T3 cells; experiment: qHTS cell viability (CellTiter-Glo, 72 h; primary screen), control cell line; assay type: cell-based, mouse
[11] = tested on: UISO cells (VN-MCC); experiment: qHTS cell viability (CellTiter-Glo, 72 h; primary and follow-up small molecule screen); assay type: cell-based, human
[12] = tested on: MKL-1 cells (VP-MCC); experiment: as above; assay type: cell-based, human
[13] = tested on: VN-MCC cell lines (MCC13, MCC26, UISO); experiment: qHTS cell viability, VN-MCC cell lines as a group (mean AUC, VN.MCC.avg); assay type: cell-based, human
[14] = tested on: six MCC cell lines and four control cell lines; experiment: qHTS cell viability, all 10 cell lines screened; assay type: cell-based
[15] = tested on: VP-MCC cell lines (WAGA, MKL-1, MKL-2); experiment: qHTS cell viability, VP-MCC cell lines as a group (mean AUC, VP.MCC.avg); assay type: cell-based, human
[16] = NPC library, qHTS dose-response AUC, MCC13
[17] = NPC library, qHTS dose-response AUC, HACAT control
[18] = NPC library, qHTS dose-response AUC, CRL7250 control
[19] = NPC library, qHTS dose-response AUC, WAGA
[20] = NPC library, mean AUC of six MCC cell lines
[21] = NPC library, mean AUC of control cell lines
[22] = NPC library, qHTS dose-response AUC, MKL2
[23] = NPC library, qHTS dose-response AUC, NIH3T3 control
[24] = NPC library, qHTS dose-response AUC, UISO
[25] = NPC library, qHTS dose-response AUC, MKL1
[26] = NPC library, mean AUC of VN-MCC cell lines
[27] = NPC library, therapeutic window: Control avg AUC minus VN-MCC avg AUC
[28] = NPC library, therapeutic window: Control avg AUC minus MCC avg AUC
[29] = NPC library, mean AUC of VP-MCC cell lines
[30] = NPC library, therapeutic window: Control avg AUC minus VP-MCC avg AUC
[31] = MIPE library, 11-point DRC, sheet S2E
[32] = MIPE library, 11-point DRC, control cell line, sheet S2E

[H]/N=C(\N/C(=N/[H])NCCCCCCNC(=N)NC(=N)Nc1ccc(Cl)cc1)Nc1ccc(Cl)cc1 [Chlorhexidine]
MCC13_AUC [1, 16]: 433.192 | HACAT_AUC [2, 17]: 458.563 | CRL7250_AUC [3, 18]: 454.576 | MCC26_AUC ([4]; NPC library, qHTS dose-response AUC, MCC26): 406.333 | WAGA_AUC [5, 19]: 400.622 | MCC_Avg_AUC ([6]; NPC library, mean AUC of all 6 MCC cell lines): 390.247 | MCC_Avg_AUC [6, 20]: 390.247 | Control_Avg_AUC [7, 21]: 442.76 | HEK293T_AUC ([8]; NPC library, qHTS dose-response AUC, HEK293T control): 398.25 | MKL2_AUC [9, 22]: 345.753 | NIH3T3_AUC [10, 23]: 459.651 | UISO_AUC [11, 24]: 378.135 | MKL1_AUC [12, 25]: 377.448 | Control-VN-MCC ([13]; Control AUC minus VN-MCC AUC): 36.8736 | VN-MCC_Avg_AUC [13, 26]: 405.887 | Control-VN-MCC [13, 27]: 36.8736 | Control-MCC [14, 28]: 52.5131 | Control-VP-MCC ([15]; Control AUC minus VP-MCC AUC): 68.1526 | VP-MCC_Avg_AUC [15, 29]: 374.608 | Control-VP-MCC [15, 30]: 68.1526

CCCCCCC[N+](CC)(CC)CCCCc1ccc(Cl)cc1.Cc1ccc(S(=O)(=O)[O-])cc1 [Clofilium tosylate]
MCC13_AUC [1, 16]: 487.681 | Area under the dose-response curve (AUC) MCC13 Replicate 1 ([1]; follow-up screen, MCC13, replicate 1): 426.2 | Area under the dose-response curve (AUC) MCC13 Replicate 2 ([1]; follow-up screen, MCC13, replicate 2): 460.3 | Area under the dose-response curve (AUC) MCC13 Replicate 3 ([1]; follow-up screen, MCC13, replicate 3): 452.0 | HACAT_AUC [2, 17]: 444.696 | CRL7250_AUC [3, 18]: 402.177 | MCC26_AUC ([4]; NPC library; qHTS dose-response AUC, MCC26): 466.849 | Area under the dose-response curve (AUC) MCC26 Replicate 1 ([4]; follow-up screen; MCC26; replicate 1): 410.9 | Area under the dose-response curve (AUC) MCC26 Replicate 2 ([4]; follow-up screen; MCC26; replicate 2): 395.3 | Area under the dose-response curve (AUC) MCC26 Replicate 3 ([4]; follow-up screen; MCC26; replicate 3): 393.8 | WAGA_AUC [5, 19]: 331.884 | Area under the dose-response curve (AUC) WAGA Replicate 1 ([5]; follow-up screen, WAGA, replicate 1): 348.8 | Area under the dose-response curve (AUC) WAGA Replicate 2 ([5]; follow-up screen, WAGA, replicate 2): 411.4 | Area under the dose-response curve (AUC) WAGA Replicate 3 ([5]; follow-up screen, WAGA, replicate 3): 326.5 | MCC_Avg_AUC [6, 20]: 376.221 | Control_Avg_AUC [7, 21]: 418.646 | HEK293T_AUC ([8]; NPC library; qHTS dose-response AUC, HEK293T control): 375.013 | MKL2_AUC [9, 22]: 283.262 | Area under the dose-response curve (AUC) MKL-2 Replicate 1 ([9]; follow-up screen, MKL-2, replicate 1): 313.7 | Area under the dose-response curve (AUC) MKL-2 Replicate 2 ([9]; follow-up screen, MKL-2, replicate 2): 309.2 | Area under the dose-response curve (AUC) MKL-2 Replicate 3 ([9]; follow-up screen, MKL-2, replicate 3): 301.8 | NIH3T3_AUC [10, 23]: 452.7 | UISO_AUC [11, 24]: 375.709 | Area under the dose-response curve (AUC) UISO Replicate 1 ([11]; follow-up screen, UISO, replicate 1): 319.6 | Area under the dose-response curve (AUC) UISO Replicate 2 ([11]; follow-up screen, UISO, replicate 2): 366.0 | Area under the dose-response curve (AUC) UISO Replicate 3 ([11]; follow-up screen, UISO, replicate 3): 321.7 | MKL1_AUC [12, 25]: 311.939 | Area under the dose-response curve (AUC) MKL-1 Replicate 1 ([12]; follow-up screen, MKL-1, replicate 1): 329.2 | Area under the dose-response curve (AUC) MKL-1 Replicate 2 ([12]; follow-up screen, MKL-1, replicate 2): 327.6 | Area under the dose-response curve (AUC) MKL-1 Replicate 3 ([12]; follow-up screen, MKL-1, replicate 3): 322.0 | VN-MCC_Avg_AUC [13, 26]: 443.413 | Control-VN-MCC [13, 27]: -24.7666 | Control-MCC [14, 28]: 42.4257 | VP-MCC_Avg_AUC [15, 29]: 309.028 | Control-VP-MCC [15, 30]: 109.618

COc1ccc2c3c1O[C@H]1[C@@H](O)C=C[C@H]4[C@@H](C2)N(C)CC[C@@]341 [Codeine hydrochloride]
MCC13_AUC [1]: 404.155 | HACAT_AUC [2]: 474.439 | CRL7250_AUC [3]: 458.141 | MCC26_AUC [4]: 404.512 | WAGA_AUC [5]: 360.01 | MCC_Avg_AUC [6]: 368.884 | Control_Avg_AUC [7]: 459.802 | HEK293T_AUC [8]: 441.34 | MKL2_AUC [9]: 316.851 | NIH3T3_AUC [10]: 465.288 and 465.287 | UISO_AUC [11]: 365.394 | MKL1_AUC [12]: 362.385 | Control-VN-MCC [13]: 68.4482 | VN-MCC_Avg_AUC [13]: 391.354 | Control-MCC [14]: 90.9174 | Control-VP-MCC [15]: 113.387 | VP-MCC_Avg_AUC [15]: 346.415

CC(C)(O)/C=C/C(=O)[C@](C)(O)[C@H]1[C@H](O)C[C@@]2(C)[C@@H]3CC=C4[C@@H](C=C(O)C(=O)C4(C)C)[C@]3(C)C(=O)C[C@]12C [Cucurbitacin I]
MCC13_AUC [1]: 297.405 | HACAT_AUC [2]: 326.184 | CRL7250_AUC [3]: 234.715 | MCC26_AUC [4]: 343.064 | WAGA_AUC [5]: 216.289 | MCC_Avg_AUC [6]: 251.368 | Control_Avg_AUC [7]: 314.075 | HEK293T_AUC [8]: 307.458 | MKL2_AUC [9]: 186.366 | NIH3T3_AUC [10]: 387.943 | UISO_AUC [11]: 252.668 | MKL1_AUC [12]: 212.417 | Control-VN-MCC [13]: 16.3626 | VN-MCC_Avg_AUC [13]: 297.712 | Control-MCC [14]: 62.7066 | Control-VP-MCC [15]: 109.051 | VP-MCC_Avg_AUC [15]: 205.024

COc1cc(/C=C/C(=O)CC(=O)/C=C/c2ccc(O)c(OC)c2)ccc1O [Curcumin]
MCC13_AUC [1, 31]: 449.9 | HACAT_AUC [2, 32]: 459.473 | CRL7250_AUC [3, 32]: 433.368 | MCC26_AUC [4, 31]: 458.412 | WAGA_AUC [5, 31]: 392.592 | MCC_Avg_AUC ([6]; MIPE library, mean AUC of six MCC cell lines, sheet S2E): 407.139 | Control_Avg_AUC ([7]; MIPE library, mean AUC of control cell lines, sheet S2E): 434.883 | HEK293T_AUC [8, 32]: 422.758 | MKL2_AUC [9, 31]: 342.595 | NIH3T3_AUC [10, 32]: 423.932 | UISO_AUC [11, 31]: 416.827 | MKL1_AUC [12, 31]: 382.508 | Control-VN-MCC ([13]; MIPE library, Control AUC minus VN-MCC AUC (therapeutic window), sheet S2E): -6.83 | VN-MCC_Avg_AUC ([13]; MIPE library, mean AUC of VN-MCC cell lines, sheet S2E): 441.713 | Control-MCC ([14]; MIPE library, Control AUC minus MCC AUC (therapeutic window), sheet S2E): 27.7437 | Control-VP-MCC ([15]; MIPE library, Control AUC minus VP-MCC AUC (therapeutic window), sheet S2E): 62.3178 | VP-MCC_Avg_AUC ([15]; MIPE library, mean AUC of VP-MCC cell lines, sheet S2E): 372.565
